# US4622317A, “Treatment of skin over androgenicity using compositions containing pregnenolone” (priority 1985, dated 1986)
# Assays:
# [1] = system: skin / body of acne patients; conditions: cited from earlier work; for skin irritation and peeling: topical application
# [2] = background statement; cited from earlier work
# [3] = system: female hamster flank organs; experiment: stimulation of female hamster flank organs by topical DHA; type: in vivo; conditions: 12 μg, 60 μg, 120 μg to right side, 7 days/week for 6 weeks, female hamsters
# Description: (§1) The effects of hormones and hormonally active substances on sebaceous glands can also be evaluated using the Syrian hamster flank organs as an animal model. The results of experiments using hamsters are valuable inasmuch as they can provide in vivo confirmation of the in vitro experiments like those described above using rat preputial gland. The flank organs, also called the costovertebral spot or the costovertebral organ, are sebaceous structures located on each flank of the animal. Like the sebaceous glands of the human and the preputial gland of the rat they are androgen dependent (Voigt and Hsia, 1973; Gomez and Frost, 1969; Frost and Gomez, 1973).
# The organ in the mature male hamster measures approximately 8 mm in diameter, is heavily pigmented and is covered with coarse dark hairs (Voigt and Hsia, 1973). The organ of the female animal is undeveloped, measuring about 2 mm in diameter, lightly pigmented, without dark hairs, and is at times difficult to see. The anatomical and histological changes in this organ in response to androgens have been described by Hamilton and Montagna (1950).
# Before testing the anti-androgenic properties of pregnenolone on hamster flank organs and relying on the results, a centrally important question therefore needed to be answered--Could DHA be shown to stimulate growth in the flank organs? […]
# skin = conditions: studies by the inventor and other laboratories; cited from earlier work
# [4] = system: flank organ of female hamsters; conditions: topical, 5 days/week for 2 weeks; cited from earlier work
# [5] = solubility of pregnenolone; type: physicochemical
# [6] = system: 3β-hydroxysteroid dehydrogenase Δ^4-5 -isomerase (3βHSD); experiment: in vitro inhibition of 3βHSD conversion of DHA in rat preputial gland homogenate; type: biochemical, rat (female Sprague-Dawley); conditions: rat preputial gland homogenate (2 mg protein), 1,2-^3 H-DHA + 100 nmoles DHA, 37° C.; four separate incubations; inhibitor concentration not given
# Protocol: To assess the androgen inhibiting activity of pregnenolone, rat preputial gland was employed to investigate the in vitro androgenic action of DHA. […] A pair of the glands are situated in the prepuce of the rat of either sex weighing between 125-200 mg in an average 200 g rat, being slightly larger in the male animal. The animals employed were female Sprague-Dawley rats, 10-12 weeks old and weighing 225-300 g.
# The experimental format, stated broadly, was to excise preputial glands from rats and prepare a homogenate therefrom. […] The metabolites were quantitated by removal from the thin layer plate and counting in a scintillation counter. By determining the extent of metabolite formation, the extent of inhibition of 3βHSD could be correspondingly determined. […]
# Experiments were initially conducted to ensure that DHA and its metabolites could be separated chromatographically. […] The position of the steroid can be readily traced with this method. […] Elution and quantitative evaluation of steroids can be effected after removal of the iodine. […] For quantitation the plates were then scraped in 1 cm sections for radioassay of ^3 H in a Packard Tri-Carb liquid scintillation counter. Silica gel H blanks and ^3 H-standards (Packard Instrument Co.) were also counted. […]
# [7] = system: 3βHSD (female hamster flank organs); experiment: in vivo inhibition of conversion of 1,2-^3 H-DHA to metabolites in flank organs of female hamsters; parameters: species or system female Syrian Golden Hamster; conditions: topical 1200 μg/0.1 ml acetone to each flank organ for 3 days
# Description: as §1
# Hamster flank organs were accordingly used to test in vivo the androgenic inhibitory properties of pregnenolone.
# Female Syrian Golden Hamsters were used in this experiment. […]
# On the afternoon of day 3, an intracardial injection of 1,2-^3 H-DHA (5μCi/0.1 ml saline buffer solution) was given to both experimental groups anesthetized with ether. […] Each organ was then placed in a 16 mm×150 mm test tube containing methanol and was homogenized, extracted and analyzed for steroid metabolites by separating the metabolites using thin layer chromatography as described above, scraping the thus separated metabolites from the thin layer plates, and quantitating using a scintillation counter. […]
# Results are shown in FIG. 2 expressed as DPM/mg tissue.
# acne vulgaris = type: in vivo, human
# Protocol: The following experiment was conducted and is a typical trial. In a double-blind clinical trial 23 patients with acne vulgaris volunteered to participate. Fifteen patients (11 females and 4 males) were given a 1% solution of pregnenolone dissolved in isopropanol containing 1% glycerol, and 8 patients (5 females and 3 males) were given a 1% solution of glycerol in isopropanol. Neither the patients nor the attending dermatologist knew whether or not the dispensed solution contained pregnenolone. The patients were instructed to stop using their previous medications for two weeks and then to apply the given solution to their faces twice daily. They were reexamined biweekly.
# [8] = 1% pregnenolone in isopropanol containing 1% glycerol, twice daily, twelve weeks, 4 of 15 patients
compound,measurement,setting,value
"CC1=C(/C=C/C(C)=C/C=C/C(C)=C\C(=O)O)C(C)(C)CCC1 [Accutane, 13-Cis retinoic acid]",blood lipids and liver toxicity,[1]; internal use,alters blood lipids and causes liver toxicity
"C[C@]12CC[C@H](O)CC1=CC[C@@H]1[C@@H]2CC[C@]2(C)C(=O)CC[C@@H]12 [DHA, dehydroepiandrosterone]",androgenic / hormonal activity,[2],only weak androgenic activity
same,stimulation of flank organs,[3],"not only a local stimulation, but stimulation of both flank organs, hence systemic stimulation"
same,metabolism in the skin,skin,readily metabolized in the skin to form potent androgenic steroids
"C[C@]12CCC(=O)C[C@@H]1CC[C@@H]1[C@@H]2CC[C@]2(C)[C@@H](O)CC[C@@H]12 [DHT, dihydrotestosterone]",sebaceous gland growth and pigmentation of flank organ,[4],unilateral stimulation of sebaceous gland growth and pigmentation
"C[C@]12CCC(=O)C=C1CC[C@@H]1[C@@H]2CC[C@]2(C)C(=O)CC[C@@H]12 [androstenedione, Δ^4 -androstenedione]",sebaceous gland growth and pigmentation of flank organ,[4],unilateral stimulation of sebaceous gland growth and pigmentation
C[C@]12CC[C@@H](O)C[C@@H]1CC[C@@H]1[C@@H]2CC[C@]2(C)C(=O)CC[C@@H]12 [androsterone],sebaceous gland growth and pigmentation of flank organ,[4],did not cause flank organ growth or increased pigmentation
O=C(OOC(=O)c1ccccc1)c1ccccc1 [benzoyl peroxide],skin irritation and peeling,[1],irritates the skin and causes the skin to peel
C[C@]12CC[C@H](O)C[C@@H]1CC[C@@H]1[C@@H]2CC[C@]2(C)C(=O)CC[C@@H]12 [epiandrosterone],sebaceous gland growth and pigmentation of flank organ,[4],did not cause flank organ growth or increased pigmentation
C[C@]12CCC(=O)C=C1CC[C@@H]1[C@@H]2CC[C@@]2(C)[C@H]1CC[C@]2(C)O [methyltestosterone],sebaceous gland growth and pigmentation of flank organ,[4],unilateral stimulation of sebaceous gland growth and pigmentation
"CC(=O)[C@H]1CC[C@H]2[C@@H]3CC=C4C[C@@H](O)CC[C@]4(C)[C@H]3CC[C@]12C [pregnenolone, Δ^5-pregnene-3β-ol-20-one]",solubility in alcohols,"[5]; alcohols, such as isopropanol or mixtures with longer (C4 -C10) alkane or alkene chains",soluble
same,solubility in water,[5]; water,insoluble in water
same,inhibition of 3βHSD for DHA (percentage of total Δ^4 -3-keto product formed in absence of inhibitor),[6],91-92%
same,androgenic / hormonal activity,[2],no known hormonal activity of its own
same,"total metabolites converted from 1,2-^3 H-DHA, treated versus control","[7]; DHA-stimulated, 1 hour after intracardial ^3 H-DHA (5 μCi)",Significant differences (P<0.01)
same,"formation of testosterone, DHT and androstanediol, control versus treated",[7]; DPM/mg tissue in FIG. 2,"Control hamsters, not treated with inhibitor, show greater formation of testosterone, DHT and androstanediol"
same,patients with reduction of oiliness,"acne vulgaris; 1% pregnenolone in isopropanol containing 1% glycerol, twice daily, twelve weeks, 2 of 15 patients",13%
same,patients with no change in lesions or oiliness,acne vulgaris; [8],26%
same,patients with slight reduction of the number of lesions and a reduction in the oiliness of the skin,acne vulgaris; [8],26%
same,"patients with definite improvement, with reduction in the size and number of lesions","acne vulgaris; 1% pregnenolone in isopropanol containing 1% glycerol, twice daily, twelve weeks, 5 of 15 patients",33%
same,beneficial effect in acne; prevention of new lesions,"acne vulgaris; conclusion of the trial, continued use","beneficial effect in the treatment of acne, and that continued use of pregnenolone prevents the development of new lesions"
same,irritation or discomfort caused by topical application,"acne vulgaris; human, in vivo",no complaint of irritation or discomfort
same,efficacy and acceptability compared with previous medications (patients' claims),acne vulgaris; patients who had used other medications previously,more effective and more acceptable
CC(=O)[C@H]1CC[C@H]2[C@@H]3CCC4=CC(=O)CC[C@]4(C)[C@H]3CC[C@]12C [progesterone],sebaceous gland growth and pigmentation of flank organ,[4],did not cause flank organ growth or increased pigmentation
CC1=C(/C=C/C(C)=C/C=C/C(C)=C/C(=O)O)C(C)(C)CCC1 [retinoic acid],skin irritation and peeling,[1],irritates the skin and causes the skin to peel
C[C@]12CC[C@H]3[C@@H](CCC4=CC(=O)CC[C@@]43C)[C@@H]1CC[C@@H]2O [testosterone],sebaceous gland growth and pigmentation of flank organ,[4],unilateral stimulation of sebaceous gland growth and pigmentation
